Reference: patent publication US20050154042A1, “N-alkyl pyrroles as HMG-CoA reductase inhibitors” (priority 2003, published 2005)

| Structure (SMILES) | melting point |
| --- | --- |
| CC(C)n1c(CC[C@@H](O)C[C@@H](O)CC(=O)[O-])c(-c2ccc(F)cc2)c(-c2ccccc2)c1C(=O)NCc1ccccc1.[Na+] [Example 114, (3R,5R)-7-[5-Benzylcarbamoyl-3-(4-fluoro-phenyl)-1-isopropyl-4-phenyl-1H-pyrrol-2-yl]-3,5-dihydroxy-heptanoic Acid Sodium Salt] | 186 to 189 °C |
| CC(C)n1c(CC[C@@H](O)C[C@@H](O)CC(=O)[O-])c(-c2ccc(F)cc2)c(-c2ccccc2)c1C(=O)N[C@@H](C)c1ccccc1.[Na+] [Example 115, (3R,5R)-7-[3-(4-Fluoro-phenyl)-1-isopropyl-4-phenyl-5-((S)-1-phenyl-ethylcarbamoyl)-1H-pyrrol-2-yl]-3,5-dihydroxy-heptanoic Acid Sodium Salt] | 227 to 229 °C (dec.) |
| COC(=O)c1ccc(NC(=O)c2c(-c3ccccc3)c(-c3ccc(F)cc3)c(CC[C@@H](O)C[C@@H](O)CC(=O)[O-])n2C(C)C)cc1.[Na+] [Example 116, (3R,5R)-4-{[5-(6-Carboxy-3,5-dihydroxy-hexyl)-4-(4-fluoro-phenyl)-1-isopropyl-3-phenyl-1H-pyrrole-2-carbonyl]-amino}-benzoic Acid Methyl Ester Sodium Salt] | 188 to 191 °C (dec.) |
| COC(=O)c1ccc(NC(=O)c2c(-c3ccccc3)c(-c3ccc(F)cc3)c(CC[C@@H](O)C[C@@H](O)CC(=O)[O-])n2C(C)C)nc1.[Na+] [Example 118, (3R,5R)-6-{[5-(6-Carboxy-3,5-dihydroxy-hexyl)-4-(4-fluoro-phenyl)-1-isopropyl-3-phenyl-1H-pyrrole-2-carbonyl]-amino}-nicotinic Acid Methyl Ester Sodium Salt] | 188 to 190 °C (dec.) |
| CC(C)n1c(CC[C@@H](O)C[C@@H](O)CC(=O)[O-])c(-c2ccc(F)cc2)c(-c2ccccc2)c1C(=O)Nc1ccccn1.[Na+] [Example 119, (3R,5R)-7-[3-(4-Fluoro-phenyl)-1-isopropyl-4-phenyl-5-(pyridin-2-ylcarbamoyl)-1 H-pyrrol-2-yl]-3,5-dihydroxy-heptanoic Acid Sodium Salt] | 226 to 228 °C (dec.) |

Other lines, results leading:

| melting point | Structure (SMILES) |
| --- | --- |
| 217 to 219 °C (dec.) | CC(C)n1c(CC[C@@H](O)C[C@@H](O)CC(=O)[O-])c(-c2ccc(F)cc2)c(-c2ccc(F)cc2)c1C(=O)Nc1ccccn1.[Na+] [Example 120, (3R,5R)-7-[3,4-Bis-(4-fluoro-phenyl)-1-isopropyl-5-(pyridin-2-ylcarbamoyl)-1H-pyrrol-2-yl]-3,5-dihydroxy-heptanoic Acid Sodium Salt] |
| 178 to 181 °C (dec.) | COC(=O)c1ccc(NC(=O)c2c(-c3ccc(F)cc3)c(-c3ccc(F)cc3)c(CC[C@@H](O)C[C@@H](O)CC(=O)[O-])n2C(C)C)nc1.[Na+] [Example 121, (3R,5R)-6-{[5-(6-Carboxy-3,5-dihydroxy-hexyl)-3,4-bis-(4-fluoro-phenyl)-1-isopropyl-1H-pyrrole-2-carbonyl]-amino}-nicotinic Acid Methyl Ester Sodium Salt] |
| 223 to 225 °C (dec.) | CC(C)n1c(CC[C@@H](O)C[C@@H](O)CC(=O)[O-])c(-c2ccc(F)cc2)c(-c2ccccc2)c1C(=O)N(c1ccccn1)c1ccccn1.[Na+] [Example 123, (3R,5R)-7-[5-(Di-pyridin-2-yl-carbamoyl)-3-(4-fluoro-phenyl)-1-isopropyl-4-phenyl-1H-pyrrol-2-yl]-3,5-dihydroxy-heptanoic Acid Sodium Salt] |
| 172 to 174 °C (dec.) | CC(C)n1c(CC[C@@H]2C[C@@H](O)CC(=O)O2)c(-c2ccc(F)cc2)c(-c2ccccc2)c1C(=O)Nc1ccc(C(=O)O)cn1 [Example 124, (2R,4R)-6-({4-(4-Fluoro-phenyl)-5-[2-(4-hydroxy-6-oxo-tetrahydro-pyran-2-yl)-ethyl]-1-isopropyl-3-phenyl-1H-pyrrole-2-carbonyl}-amino)-nicotinic Acid] |
